In patent US20130071400A1, “LINGO binding molecules and Pharmaceutical Use Thereof” (NOVARTIS AG, priority 2006, published 2013):

Tested on: postnatal day 7 rat cerebellar granule neurons (CGN)
Assay: Neurite outgrowth inhibition assay on spinal cord myelin
Type: cell-based
Protocol: A) P7 CGN cells are incubated for 16 hr on wells coated without spinal cord myelin (no SC, white bars) or wells coated with spinal cord myelin in the absence (SC, red bars) or presence of anti-LINGO-1 IgG4 antibodies, a control anti-lysozyme IgG4 antibody 3207 (green bars) or […] of the ROCK inhibitor Y27632 (yellow bar). […] The experiment is performed in three 96 well plates with an SC and no SC condition per plate to which the effects of the antibodies on that plate are compared and mean neurite length per neuron (μm) is calculated for 500 neurons per well in replicates of 10. The percentage inhibition (white text) is calculated as the percentile difference in mean neurite length/neuron between cells plated on wells coated with and without SC. The percentage disinhibition (black italic text) is calculated as the difference in mean neurite length between cells plated on SC in the presence and absence of anti-LINGO-1 antibody as a percentile of the difference between cells plated on wells coated with and without SC. *p<0.05, **p<0.01 (one way ANOVA, Holm-Sidak comparison to mean neurite length/neuron for cells plated on spinal cord myelin in the absence of antibody).
A) P7 CGN cells are incubated for 8 hr on wells coated without spinal cord myelin (no SC, white bars) or wells coated with spinal cord myelin in the absence (SC, red bars) or presence of anti-LINGO-1 IgG4 antibodies or a control anti-lysozyme IgG4 antibody 3207. The experiment is performed in three 96 well plates with an SC and no SC condition per plate to which the effects of the antibodies on that plate are compared and mean neurite length per neuron (μm) is calculated for 500 neurons per well in replicates of 10. The percentage inhibition (white text) and disinhibition (black italic text) is calculated as above. **p<0.01 (one way ANOVA, Holm-Sidak comparison to mean neurite length/neuron for cells plated on spinal cord myelin in the absence of antibody).
P7 CGN cells are incubated for 8 hr on wells coated without spinal cord myelin (no SC) or wells coated with spinal cord myelin in the absence (SC) or presence of the indicated concentrations of anti-LINGO-1 IgG4 antibodies 4784 or 4785, a control anti-lysozyme IgG4 antibody 3207 or 1 μM Y27632 (ROCK). The experiment is performed in three 96 well plates with an SC and no SC condition per plate to which the effects of the antibodies on that plate are compared and mean neurite length per neuron (μm) is calculated for 500 neurons per well in replicates of 10. The percentage inhibition (white text) and disinhibition (black italic text) is calculated as above. *p<0.05, **p<0.01 (one way ANOVA, Holm-Sidak comparison to mean neurite length/neuron for cells plated on spinal cord myelin in the absence of antibody). […]

C[C@@H](N)[C@H]1CC[C@H](C(=O)Nc2ccncc2)CC1 [Y27632, reference compound]
disinhibition of spinal cord myelin (1 μM Y27632, 8 hr incubation (FIG. 4)): 65-74%
disinhibition of spinal cord myelin (neurite outgrowth) (1 μm Y27632, 16 hr incubation (FIG. 2), compared to 4784 and 4785): greater level of disinhibition
